Measurements taken from US4867973A, “Antibody-therapeutic agent conjugates” (Cytogen Corporation, priority 1984, dated 1989).
Ends that are not written are not given here. Peptide text beside a SMILES is read from it. * marks the point of attachment. AMC = Cc1cc(=O)oc2cc(N*)ccc12; Boc = CC(C)(C)OC(=O)*

How the values were obtained:
Type in all cases: biochemical
trypsin [1] = test: Fluorescence assay of AMC release from peptide linker by trypsin; conditions: for Cleavage Rates, Trypsin: trypsin 0.1 ug/ml, peptide 5 uM
Experimental: (§1) The rates of cleavage for the peptide linker were measured by fluorescence quenching using a Perkin Elmer 650-10S fluorescence spectrometer (Perkin-Elmer Corporation, Norwalk, Conn.). The excitation and emission wavelengths were 380 nm and 460 nm, respectively and the temperature was maintained at 25° C. with a Lauda k-2/R circulating water bath (Brinkmann Instruments, Westbury, N.Y.).
(§2) The initial concentrations of Gly-Gly-Arg-AMC were determined by optical density, Σ^1M325 =16,000. The solutions were adjusted to 1 uM concentrations. One ml of the 1 uM solution in PBS, pH 7.4 was placed in a cuvette. The appropriate amounts of enzyme (1 ug/ml trypsin or 10 ug/ml urokinase) was then added at room temperature with stirring using a motor-driven syringe and the reaction kinetics were followed for several minutes. The fluorescence intensity of a known concentration of free AMC was established and used as a baseline to determine the change in units per nM/minute of free AMC in this fluorescence assay system.
(§3) In another experiment, the Gly-Gly-Arg-AMC concentration was 100 uM and the trypsin used at 100 ug/ml. In another embodiment of the present invention, the Gly-Gly-Arg-AMC was conjugated to oxidized dextran which can serve as a spacer as described in Section 5.4.3 (10,000 molecular weight) (Pharmacia Fine Chemicals, Piscataway, N.J.) by the methods of the present invention using a molar ratio of Gly-Gly-Arg-AMC to dextran of 58:1. Dextran-Gly-Gly-Arg-AMC was separated with a 6.5 ml Sephadex® G-25 column (Pharmacia Fine Chemicals, Piscataway, N.J.).
(§4) Peptide sequences that are analogs of complement components were cleaved by trypsin (0.1 ug/ml), urokinase (0.1 ug/ml), plasmin (1 ug/ml) and purified complement components C4,2 and C1s (40 ug/ml). The data in Table V compare the cleavage rates (nM/minute) of these sequences. The fluorescence assay described in Section 8 for cleavage of Gly-Gly-Arg-AMC was used here. Complement components were purified and assayed by the method of Tack and Prahl (Biochem., 1976, 15:4513-4521).

urokinase [2] = molecular target: T1, urokinase (Homo sapiens, UniProt P00749); test: Fluorescence assay of AMC release from peptide linker by urokinase; conditions: urokinase 0.1 ug/ml; peptide 5 uM
Experimental: as §1, §2, §3, §4

urokinase [3] = molecular target: T1, urokinase; test: Release of 125I-Tyr from radiolabeled peptide by urokinase (agarose gel electrophoresis or TLC); conditions: urokinase 10 ug/ml; substrate 0.1 uM; 125I-Tyr release
Experimental: (§5) For the purposes of the present example, the tetrapeptide Glycine-Glycine-Arginine-Tyrosine was radiolabeled at the amino acid residue tyrosine with 125 Iodine (125 I) (Greenwood et al. 1963, Biochem. J. 88: 114-120). This radiolabeled compound is hereinafter referred to as Gly-Gly-Arg-Tyr* (wherein the * denotes ^125 I).
(§6) The peptide Gly-Gly-Arg-Tyr* was assayed for the release of the 125I labeled tyrosine residue by agarose gel electrophoresis or thin-layer chromatography (TLC, Sono and Asakura, 1974, Biochem 13:4386-4394). Briefly, appropriate amounts of enzyme were added to a reaction tube containing 0.1 uM Gly-Gly-Arg-Tyr in PBS, pH 7.4. The mixture was incubated at 37° C. for 30 minutes. Three ul of this reaction mixture were then applied to an agarose gel (1%) and run at high voltage (120 V/cm) in Barbitol Buffer, 0.025 M sodium diethylbarbituate HCl buffer, pH 8.6. Three ul of bromophenol blue solution was used as a marker to determine the end of the run. The agarose gel was then cut into sections and counted in a LKB 1271 gamma counter (LKB Instruments, Gaithersburg, Md.) to determine if the Tyr remained at the origin or migrated through the gel. Alternatively, samples were separated and identified by TLC as described supra. […] The plate was dried and divided into ten sections which were counted in a gamma counter. […]

trypsin [4] = test: Release of 125I-Tyr from radiolabeled peptide by trypsin (agarose gel electrophoresis or TLC); conditions: trypsin 1 ug/ml; substrate 0.1 uM; 125I-Tyr release
Experimental: as §5, §6

[5] = molecular target: T2, purified complement component C4,2 (Homo sapiens, UniProt P06681); test: Fluorescence assay of AMC release by purified complement component C4,2; conditions: 40 ug/ml enzyme; peptide 5 uM
T2 construct: from tissue
T2 sequence (P06681 244-752 limits assumed): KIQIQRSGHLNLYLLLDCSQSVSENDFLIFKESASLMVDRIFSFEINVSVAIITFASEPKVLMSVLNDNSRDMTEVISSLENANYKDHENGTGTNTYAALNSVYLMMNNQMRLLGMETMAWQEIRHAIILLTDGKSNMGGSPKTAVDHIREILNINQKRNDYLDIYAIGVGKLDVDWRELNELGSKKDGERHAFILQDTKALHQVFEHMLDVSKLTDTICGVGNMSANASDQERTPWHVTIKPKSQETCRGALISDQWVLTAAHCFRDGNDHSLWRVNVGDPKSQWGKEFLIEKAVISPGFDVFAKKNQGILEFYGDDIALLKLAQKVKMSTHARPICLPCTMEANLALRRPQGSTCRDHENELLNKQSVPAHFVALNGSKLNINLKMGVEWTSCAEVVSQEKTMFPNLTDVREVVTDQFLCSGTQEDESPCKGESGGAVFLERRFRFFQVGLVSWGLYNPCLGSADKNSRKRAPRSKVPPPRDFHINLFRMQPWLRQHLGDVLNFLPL
T2 sequence (P0C0L4 20-675 partner limits assumed): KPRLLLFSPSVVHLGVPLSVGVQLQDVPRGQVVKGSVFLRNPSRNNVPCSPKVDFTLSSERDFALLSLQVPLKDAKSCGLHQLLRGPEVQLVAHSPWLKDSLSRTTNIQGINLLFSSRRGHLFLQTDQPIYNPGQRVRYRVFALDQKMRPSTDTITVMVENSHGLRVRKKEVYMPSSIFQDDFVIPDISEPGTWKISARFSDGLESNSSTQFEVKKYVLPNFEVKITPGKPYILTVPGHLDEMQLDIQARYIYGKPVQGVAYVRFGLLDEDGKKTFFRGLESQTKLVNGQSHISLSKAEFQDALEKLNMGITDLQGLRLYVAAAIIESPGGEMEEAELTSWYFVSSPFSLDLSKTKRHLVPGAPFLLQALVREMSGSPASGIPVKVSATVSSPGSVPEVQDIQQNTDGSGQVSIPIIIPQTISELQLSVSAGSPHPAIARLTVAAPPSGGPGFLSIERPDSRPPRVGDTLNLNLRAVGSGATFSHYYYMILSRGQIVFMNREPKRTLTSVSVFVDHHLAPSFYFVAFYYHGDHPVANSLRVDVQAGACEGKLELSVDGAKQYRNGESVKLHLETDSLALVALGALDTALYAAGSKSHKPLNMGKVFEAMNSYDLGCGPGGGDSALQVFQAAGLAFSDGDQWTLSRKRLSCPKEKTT
T2 sequence (P0C0L4 757-1446 partner limits assumed): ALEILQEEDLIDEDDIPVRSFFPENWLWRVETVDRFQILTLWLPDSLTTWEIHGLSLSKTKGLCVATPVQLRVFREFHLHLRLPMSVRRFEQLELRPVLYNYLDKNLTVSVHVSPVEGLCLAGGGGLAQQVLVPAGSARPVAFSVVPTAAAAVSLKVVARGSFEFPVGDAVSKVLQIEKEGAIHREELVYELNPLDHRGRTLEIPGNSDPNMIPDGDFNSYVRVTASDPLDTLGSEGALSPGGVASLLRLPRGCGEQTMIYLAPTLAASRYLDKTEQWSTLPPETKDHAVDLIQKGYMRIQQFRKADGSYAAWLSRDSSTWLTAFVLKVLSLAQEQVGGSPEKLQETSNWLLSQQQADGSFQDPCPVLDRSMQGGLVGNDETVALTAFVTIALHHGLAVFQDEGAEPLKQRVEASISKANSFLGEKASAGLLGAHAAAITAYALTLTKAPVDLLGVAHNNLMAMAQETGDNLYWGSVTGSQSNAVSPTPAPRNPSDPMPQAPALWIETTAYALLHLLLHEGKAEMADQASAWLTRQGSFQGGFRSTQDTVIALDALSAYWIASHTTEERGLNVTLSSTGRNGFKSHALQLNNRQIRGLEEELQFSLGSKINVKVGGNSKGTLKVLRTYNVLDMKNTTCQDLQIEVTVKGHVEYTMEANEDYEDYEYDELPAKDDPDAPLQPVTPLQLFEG
T2 sequence (P0C0L4 1454-1744 partner limits assumed): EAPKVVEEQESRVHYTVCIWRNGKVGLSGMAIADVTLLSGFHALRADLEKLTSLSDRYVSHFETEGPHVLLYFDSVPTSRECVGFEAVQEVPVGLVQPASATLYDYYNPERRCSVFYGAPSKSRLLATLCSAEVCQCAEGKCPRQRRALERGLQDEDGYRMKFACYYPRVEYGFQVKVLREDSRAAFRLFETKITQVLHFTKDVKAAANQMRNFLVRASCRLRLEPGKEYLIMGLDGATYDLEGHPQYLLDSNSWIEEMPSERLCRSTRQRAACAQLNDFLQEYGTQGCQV
Experimental: as §4

[6] = molecular target: T3, purified complement component C1s (Homo sapiens, UniProt P09871); test: Fluorescence assay of AMC release by purified complement component C1s; conditions: 10 ug/ml enzyme; peptide 5 uM
T3 construct: from tissue
T3 sequence (P09871 16-688): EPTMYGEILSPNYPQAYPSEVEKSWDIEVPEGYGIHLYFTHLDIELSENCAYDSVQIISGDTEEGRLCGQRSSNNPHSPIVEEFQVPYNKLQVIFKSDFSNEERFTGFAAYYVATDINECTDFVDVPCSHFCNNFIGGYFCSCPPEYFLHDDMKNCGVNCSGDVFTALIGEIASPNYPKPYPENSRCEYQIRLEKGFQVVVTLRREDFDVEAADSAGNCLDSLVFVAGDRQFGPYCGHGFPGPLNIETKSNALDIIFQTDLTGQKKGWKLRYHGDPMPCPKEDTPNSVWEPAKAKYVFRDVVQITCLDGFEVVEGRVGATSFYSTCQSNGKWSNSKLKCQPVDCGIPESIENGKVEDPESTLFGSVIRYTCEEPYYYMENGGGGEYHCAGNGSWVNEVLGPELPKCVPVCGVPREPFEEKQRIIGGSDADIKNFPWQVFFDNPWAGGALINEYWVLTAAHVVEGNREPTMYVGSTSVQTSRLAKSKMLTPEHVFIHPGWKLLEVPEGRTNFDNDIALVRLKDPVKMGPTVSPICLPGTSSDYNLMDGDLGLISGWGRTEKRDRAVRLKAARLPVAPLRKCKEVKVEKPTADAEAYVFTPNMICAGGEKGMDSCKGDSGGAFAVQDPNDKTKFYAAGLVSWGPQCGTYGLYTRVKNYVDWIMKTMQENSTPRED
Source text: The data in Table V compare the cleavage rates (nM/minute) of these sequences. The fluorescence assay described in Section 8 for cleavage of Gly-Gly-Arg-AMC was used here. Complement components were purified and assayed by the method of Tack and Prahl (Biochem., 1976, 15:4513-4521).

plasmin = plasmin (Homo sapiens, UniProt P00747); test: Fluorescence assay of AMC release by plasmin; conditions: plasmin 1 ug/ml; peptide 5 uM
Sequence of plasmin (P00747 581-810 limits assumed, species assumed): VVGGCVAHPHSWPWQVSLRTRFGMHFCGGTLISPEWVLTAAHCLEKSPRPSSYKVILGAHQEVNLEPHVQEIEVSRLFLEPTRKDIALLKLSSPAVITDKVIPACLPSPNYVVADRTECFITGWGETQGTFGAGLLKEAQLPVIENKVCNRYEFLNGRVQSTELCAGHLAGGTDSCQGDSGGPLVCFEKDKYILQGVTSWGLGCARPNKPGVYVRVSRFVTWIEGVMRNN
Sequence of plasmin (P00747 97-580 partner limits assumed, species assumed): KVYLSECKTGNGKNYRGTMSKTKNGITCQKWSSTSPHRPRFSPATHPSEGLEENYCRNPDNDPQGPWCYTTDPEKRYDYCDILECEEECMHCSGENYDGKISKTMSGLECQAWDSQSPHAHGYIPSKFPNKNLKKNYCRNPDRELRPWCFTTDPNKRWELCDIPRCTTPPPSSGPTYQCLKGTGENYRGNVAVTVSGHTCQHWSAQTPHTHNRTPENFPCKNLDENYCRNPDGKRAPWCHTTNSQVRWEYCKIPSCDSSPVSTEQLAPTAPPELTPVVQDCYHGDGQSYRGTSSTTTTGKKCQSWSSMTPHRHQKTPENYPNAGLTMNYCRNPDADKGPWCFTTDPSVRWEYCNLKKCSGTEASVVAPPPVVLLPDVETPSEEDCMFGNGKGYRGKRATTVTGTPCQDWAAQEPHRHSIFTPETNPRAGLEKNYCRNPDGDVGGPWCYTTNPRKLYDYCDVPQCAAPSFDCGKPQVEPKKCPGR
Experimental: as §4

Compound | Cleavage Rates, Urokinase (urokinase [2]) | Cleavage Rates, Trypsin (trypsin [1]) | further results
Cc1cc(=O)oc2cc(NC(=O)[C@H](CCCNC(=N)N)NC(=O)[C@H](CCCNC(=N)N)NC(=O)[C@H](CCC(=O)O)NC(=O)OC(C)(C)C)ccc12 [Boc-Glu-Arg-Arg-AMC] (Boc-Glu-Arg-Arg-{AMC}) | 0 nM/min | 3.7 nM/min | 
Cc1cc(=O)oc2cc(NC(=O)[C@H](CCCNC(=N)N)NC(=O)[C@H](CO)NC(=O)[C@H](Cc3ccccc3)NC(=O)OC(C)(C)C)ccc12 [Boc-Phe-Ser-Arg-AMC] (Boc-Phe-Ser-Arg-{AMC}) | 0.044 nM/min | 17 nM/min | 
PGRVVGY [Pro--Gly--Arg--Val--Val--Gly--Tyr*, plasminogen analog] |  |  | Cleavage Rates Released Group, Urokinase (urokinase [3]): .01 nM/min; Cleavage Rates Released Group, Trypsin (trypsin [4]): 3 nM/min
Glycine-Glycine-Arginine-Tyrosine [Gly--Gly--Arg--Tyr*] |  |  | Cleavage Rates Released Group, Urokinase (urokinase [3]): .01 nM/min; Cleavage Rates Released Group, Trypsin (trypsin [4]): 4 nM/min
Cc1cc(=O)oc2cc(NC(=O)[C@H](CCCNC(=N)N)NC(=O)[C@@H]3CCCN3C(=O)[C@@H](NC(=O)OC(C)(C)C)C(C)C)ccc12 [Boc-Val-Pro-Arg-AMC] (Boc-Val-Pro-Arg-{AMC}) | 0 nM/min | 3.8 nM/min | 
Cc1cc(=O)oc2cc(NC(=O)[C@H](CCCNC(=N)N)NC(=O)CNC(=O)[C@H](CC(C)C)NC(=O)OC(C)(C)C)ccc12 [Boc-Leu-Gly-Arg-AMC, Boc-leu-gly-arg-7-amino-4-methylcoumarin] (Boc-Leu-Gly-Arg-{AMC}) | 3.7 nM/min | 750 nM/min | 
Cc1cc(=O)oc2cc(NC(=O)[C@H](CCCNC(=N)N)NC(=O)CNC(=O)[C@@H](NC(=O)OC(C)(C)C)C(C)C)ccc12 [Boc-Val-Gly-Arg-AMC] (Boc-Val-Gly-Arg-{AMC}) | 2.8 nM/min | 720 nM/min | 

More lines, main results first:

Cleavage Rates, Urokinase (urokinase [2]) | Compound | Cleavage Rates, Trypsin (trypsin [1]) | further results
0 nM/min | Cc1cc(=O)oc2cc(NC(=O)[C@H](CCCCN)NC(=O)[C@H](CCCCN)NC(=O)[C@@H](N)CCC(=O)O)ccc12 [Glu-Lys-Lys-AMC] (H-Glu-Lys-Lys-{AMC}) | 0.62 nM/min | 
0 nM/min | Cc1cc(=O)oc2cc(NC(=O)[C@H](CCCNC(=N)N)NC(=O)[C@H](Cc3ccccc3)NC(=O)[C@@H]3CCCN3)ccc12 [Pro-Phe-Arg-AMC] (H-Pro-Phe-Arg-{AMC}) | 0 nM/min | 
27 nM/min | Cc1cc(=O)oc2cc(NC(=O)[C@H](CCCNC(=N)N)NC(=O)CNC(=O)CN)ccc12 [Gly--Gly--Arg--AMC, Gly-Gly-Arg-AMC] | 450 nM/min | Cleavage Rates, complement component (column head drawing 17) [5]: 0.9 to 1.2 nM/min; Cleavage Rates Released Group, Trypsin (trypsin [1]; trypsin 100 ug/ml, substrate 100 uM): 20,000 nM/min.; Cleavage Rates, complement component (column head drawing 18) [6]: 0.9 to 1.2 nM/min; Cleavage Rates, Plasmin (plasmin): 0.005 nM/min
35 nM/min | Cc1cc(=O)oc2cc(NC(=O)[C@H](CCCNC(=N)N)NC(=O)CNC(=O)[C@@H](N)CCC(=O)O)ccc12 [Glu-Gly-Arg-AMC] (H-Glu-Gly-Arg-{AMC}) | 140 nM/min | 
